Molecular target: T1, human TRPM8 (Homo sapiens, UniProt Q7Z2W7)
T1 construct: expressed in transfected cells; host or cells: HEK293
Assay: Menthol-induced Ca2+ influx in HEK293 cells stably expressing human TRPM8
Type: cell-based
Settings: 30 microM menthol-induced Ca2+ influx, read-out: IC50 against TRPM8
How it was run: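 HEK293 cells stably expressing human TRPM8 were loaded with Fluo4-AM for 1 h at room temperature, preincubated 5 min with compound, then challenged with 30 microM menthol. Calcium rise was read by FDSS imaging. IC50 came from 11-point curves using duplicate-well means.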

T1 sequence (Q7Z2W7 whole entry): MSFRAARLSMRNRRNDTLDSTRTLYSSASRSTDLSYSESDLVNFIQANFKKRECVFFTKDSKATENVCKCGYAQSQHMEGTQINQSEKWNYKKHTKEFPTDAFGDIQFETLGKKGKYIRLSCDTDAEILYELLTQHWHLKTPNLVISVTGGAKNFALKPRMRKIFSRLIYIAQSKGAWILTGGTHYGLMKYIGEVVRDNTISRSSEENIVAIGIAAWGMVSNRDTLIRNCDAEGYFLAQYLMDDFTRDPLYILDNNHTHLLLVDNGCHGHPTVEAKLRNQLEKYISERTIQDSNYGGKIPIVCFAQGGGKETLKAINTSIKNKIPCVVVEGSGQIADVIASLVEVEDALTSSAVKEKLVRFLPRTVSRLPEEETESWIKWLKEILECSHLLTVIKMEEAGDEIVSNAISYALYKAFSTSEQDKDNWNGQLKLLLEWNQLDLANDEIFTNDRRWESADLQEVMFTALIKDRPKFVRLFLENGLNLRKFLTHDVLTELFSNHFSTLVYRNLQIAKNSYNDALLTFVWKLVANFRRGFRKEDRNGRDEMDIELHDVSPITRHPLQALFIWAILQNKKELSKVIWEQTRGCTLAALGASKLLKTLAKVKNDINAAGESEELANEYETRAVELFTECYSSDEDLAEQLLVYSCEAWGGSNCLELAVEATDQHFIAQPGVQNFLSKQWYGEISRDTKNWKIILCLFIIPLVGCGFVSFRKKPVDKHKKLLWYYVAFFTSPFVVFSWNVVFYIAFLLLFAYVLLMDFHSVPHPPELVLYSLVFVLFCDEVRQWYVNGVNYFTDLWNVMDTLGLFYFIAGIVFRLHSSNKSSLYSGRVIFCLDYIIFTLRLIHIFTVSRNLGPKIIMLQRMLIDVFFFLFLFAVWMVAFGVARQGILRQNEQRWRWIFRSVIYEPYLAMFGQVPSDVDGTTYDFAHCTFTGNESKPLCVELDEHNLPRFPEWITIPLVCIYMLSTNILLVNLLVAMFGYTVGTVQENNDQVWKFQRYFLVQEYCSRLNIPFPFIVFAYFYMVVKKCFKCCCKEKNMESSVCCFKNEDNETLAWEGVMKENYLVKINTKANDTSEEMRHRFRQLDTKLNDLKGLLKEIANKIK

Row | IC50 [nM] | Compound
1 | < 100 | Cc1nc(C(=O)CN2C(=O)NC3(CCC(F)(F)CC3)C2=O)n(C)c1-c1ccccc1 [Example 17-7]
2 | < 500 | O=C(CN1C(=O)NC2(CCC(F)(F)CC2)C1=O)c1ccc(-c2cccnc2N2CC(O)C2)cc1 [Example 6-48]
3 | < 100 | O=C(CN1C(=O)NC2(CCCCC2)C1=O)c1ccc(-c2cccnc2)cc1F [Example 13-18]
4 | < 500 | O=C(CN1C(=O)NC2(CCC(F)(F)CC2)C1=O)c1ccc(Sc2ccccc2)nc1 [Example 20-9]
5 | < 100 | Cc1cc(C(=O)CN2C(=O)NC3(CCC(F)(F)CC3)C2=O)sc1-c1ccccc1CO [Example 14-4]
6 | < 100 | O=C(CN1CC2(CCC(F)(F)CC2)OC1=O)c1ccc(-c2ccccc2CO)cc1 [Example 13-55]
7 | < 100 | Nc1ncccc1-c1ccc(C(=O)CN2C(=O)NC3(CCCCC3)C2=O)cc1 [Example 7-13]
8 | < 100 | Cc1cnc(C)c(-c2ccc(C(=O)CN3C(=O)NC4(CCCCC4)C3=O)cc2)n1 [Example 7-4]
9 | < 500 | O=C(CN1C(=O)NC2(CCC(F)(F)CC2)C1=O)c1ccc(-c2nccs2)cc1 [Example 6-95]
10 | < 100 | Cc1cc(C(=O)CN2C(=O)NC3(CCC(F)(F)CC3)C2=O)sc1-c1cccnc1 [Example 14-7]
11 | < 100 | O=C(CN1C(=O)NC2(CCC(F)(F)CC2)C1=O)c1ccc(-c2cncc(F)c2)c(Cl)c1 [Example 13-26]
12 | < 100 | Cc1ccc2[nH]c(=O)n(-c3ccc(C(=O)CN4C(=O)NC5(CCC(F)(F)CC5)C4=O)cc3)c2n1 [Example 23-2, 8,8-difluoro-3-(2-(4-(5-methyl-2-oxo-1H-imidazo[4,5-b]pyridin-3(2H)-yl)phenyl)-2-oxoethyl)-1,3-diazaspiro[4.5]decane-2,4-dione]
13 | < 500 | O=C(CN1C(=O)NC2(CCC(F)(F)CC2)C1=O)c1ccc(-c2nccn3ccnc23)cc1 [Example 6-85]
14 | < 500 | O=C(CN1C(=O)NC2(CCC(F)(F)CC2)C1=O)c1ccc(-n2cnc3ncncc32)cc1 [Example 19-35]
15 | < 100 | N#Cc1cccc(-c2ccc(C(=O)CN3C(=O)NC4(CCCCC4)C3=O)cc2)n1 [Example 7-5]
16 | < 100 | O=C(CN1C(=O)NC2(CCC(F)(F)CC2)C1=O)c1ccc(-n2c(=O)[nH]c3cccnc32)cc1 [Example 23-1, 8,8-difluoro-3-(2-oxo-2-(4-(2-oxo-1H-imidazo[4,5-b]pyridin-3(2H)-yl)phenyl)ethyl)-1,3-diazaspiro[4.5]decane-2,4-dione]
17 | < 500 | Cc1cc(C(=O)CN2C(=O)NC3(CCC(F)(F)CC3)C2=O)sc1-c1cccnc1CO [Example 14-19]
18 | < 100 | Cc1sc(C(=O)CN2C(=O)NC3(CCC(F)(F)CC3)C2=O)c(C)c1-c1cccc(C#N)c1 [Example 15-3]
19 | < 100 | O=C(CN1C(=O)NC2(CCC(F)(F)CC2)C1=O)c1ccc(Oc2cccnc2)c(F)c1 [Example 21-17]
20 | < 100 | O=C(CN1C(=O)NC2(CCC(F)(F)CC2)C1=O)c1ccc(-c2cccc3cccnc23)cc1 [Example 13-46]
21 | < 100 | O=C(CN1C(=O)NC2(CCC(F)(F)CC2)C1=O)c1ccc(-c2cccc3[nH]ncc23)cc1 [Example 13-40]
22 | < 100 | Cc1cc(C(=O)CN2C(=O)NC3(CCC(F)(F)CC3)C2=O)c(C)n1-c1cccnc1 [Example 3-9]
23 | < 500 | Cc1cccnc1Oc1ccc(C(=O)CN2C(=O)NC3(CCC(F)(F)CC3)C2=O)cc1 [Example 21-3]

Row | IC50 [nM] | Compound
24 | < 100 | Cc1cccc(-c2c(C)cc(C(=O)CN3C(=O)NC4(CCC(F)(F)CC4)C3=O)n2C)c1 [Example 16-18]
25 | < 100 | Cc1cccc(-n2c(C)cc(C(=O)CN3C(=O)NC4(CCC(F)(F)CC4)C3=O)c2C)n1 [Example 3-13]
26 | < 100 | O=C(CN1C(=O)NC2(CCCCC2)C1=O)c1ccc(Oc2cccc(Cl)c2)nc1 [Example 20-1, 3-(2-(6-(3-chlorophenoxy)pyridin-3-yl)-2-oxoethyl)-1,3-diazaspiro[4.5]decane-2,4-dione]
27 | < 10 | Cc1ccc2nc(C)n(-c3ccc(C(=O)CN4C(=O)NC5(CCC(F)(F)CC5)C4=O)cc3)c2n1 [Example 5-27]
28 | < 100 | Cc1cc(-n2c(C)cc(C(=O)CN3C(=O)NC4(CCC(F)(F)CC4)C3=O)c2C)no1 [Example 1-1, 3-(2-(2,5-dimethyl-1-(5-methylisoxazol-3-yl)-1H-pyrrol-3-yl)-2-oxoethyl)-8,8-difluoro-1,3-diazaspiro[4.5]decane-2,4-dione]
29 | < 100 | O=C(CN1C(=O)NC2(CCC(F)(F)CC2)C1=O)c1ccc(-c2nccc3ccccc23)cc1 [Example 6-25]
30 | < 100 | COc1ccccc1-c1sc(C(=O)CN2C(=O)NC3(CCC(F)(F)CC3)C2=O)cc1C [Example 14-12]
31 | < 100 | O=C(CN1CC2(CCC(F)(F)CC2)OC1=O)c1ccc(-n2cnc3ccccc32)cc1 [Example 22-4]
32 | < 500 | Cc1cc(C(=O)CN2C(=O)NC3(CCC(F)(F)CC3)C2=O)n(C)c1-c1cncc(C(N)=O)c1 [Example 16-33]
33 | < 100 | CN(c1cccnc1)c1ccc(C(=O)CN2C(=O)NC3(CCCCC3)C2=O)cn1 [Example 19-4]
34 | < 100 | Cc1nc(C(=O)CN2C(=O)NC3(CCC(F)(F)CC3)C2=O)sc1-c1ccccc1C#N [Example 18-6]
35 | < 100 | O=C(CN1C(=O)NC2(CCC(F)(F)CC2)C1=O)c1ccc(-c2ccncc2Cl)cc1 [Example 6-122]
36 | < 500 | COc1cncc(-c2ccc(C(=O)CN3C(=O)NC4(CCC(F)(F)CC4)C3=O)cc2)c1 [Example 6-90]
37 | < 100 | O=C(CN1C(=O)NC2(CCC(F)(F)CC2)C1=O)c1ccc(Oc2nccs2)cc1 [Example 21-13, 8,8-difluoro-3-(2-oxo-2-(4-(thiazol-2-yloxy)phenyl)ethyl)-1,3-diazaspiro[4.5]decane-2,4-dione]
38 | < 10 | Cc1cc(C(=O)CN2C(=O)NC3(CCC(F)(F)CC3)C2=O)n(C)c1-c1cccc(C#N)c1 [Example 16-4]
39 | < 500 | Cc1nc(C(=O)CN2C(=O)NC3(CCC(F)(F)CC3)C2=O)n(C)c1-c1cccnc1 [Example 17-12]
40 | < 100 | O=C(CN1CC2(CCC(F)(F)CC2)OC1=O)c1ccc(-n2cnc3cccnc32)cc1 [Example 22-1]
41 | < 100 | Cc1nccnc1-c1ccc(C(=O)CN2C(=O)NC3(CCC(F)(F)CC3)C2=O)cc1F [Example 8-3]
42 | < 100 | Cc1cc(C(=O)CN2C(=O)NC3(CCC(F)(F)CC3)C2=O)sc1-c1cccc(C#N)c1 [Example 14-10]
43 | < 100 | O=C(CN1C(=O)NC2(CCC(F)(F)CC2)C1=O)c1ccc(-c2cccn3ccnc23)cc1 [Example 6-38]
44 | < 100 | Cc1cncc(-c2ccc(C(=O)CN3C(=O)NC4(CCC(F)(F)CC4)C3=O)cc2)n1 [Example 6-28]
45 | < 100 | O=C(CN1C(=O)NC2(CCC(F)(F)CC2)C1=O)c1ccc(-c2ccccn2)cc1 [Example 13-49]
46 | < 100 | CC(=O)c1cccc(-c2c(C)cc(C(=O)CN3C(=O)NC4(CCC(F)(F)CC4)C3=O)n2C)c1 [Example 16-20]

Row | IC50 [nM] | Compound
47 | < 500 | O=C(CN1C(=O)NC2(CCC(F)(F)CC2)C1=O)c1ccc(-c2cncc3[nH]ncc23)nc1 [Example 9-27]
48 | < 100 | O=C(CN1C(=O)NC2(CCC(F)(F)CC2)C1=O)c1ccc(-c2cccc3cccnc23)nc1 [Example 9-13]
49 | < 100 | O=C(CN1C(=O)NC2(CCCCC2)C1=O)c1ccc(-c2cccnc2)cc1 [Example 13-2]
50 | < 100 | Cc1cc(C(=O)CN2C(=O)NC3(CCC(F)(F)CC3)C2=O)ccc1-c1cccc(F)c1 [Example 13-17]
51 | < 100 | COc1cc(C(=O)CN2C(=O)NC3(CCC(F)(F)CC3)C2=O)ccc1-c1ccccc1C#N [Example 5-5]
52 | < 100 | O=C(CN1C(=O)NC2(CCC(F)(F)CC2)C1=O)c1ccc(N2CCOc3ccccc32)nc1 [Example 19-7]
53 | < 100 | O=C(CN1C(=O)NC2(CCC(F)(F)CC2)C1=O)c1ccc(-c2cnc3ccccn23)cc1 [Example 6-81]
54 | < 100 | COc1cccnc1-c1ccc(C(=O)CN2C(=O)NC3(CCC(F)(F)CC3)C2=O)cc1 [Example 6-84]
55 | < 500 | Cc1sc(C(=O)CN2C(=O)NC3(CCC(F)(F)CC3)C2=O)c(C)c1-c1cncc(C(N)=O)c1 [Example 15-10]
56 | < 10 | O=C(CN1C(=O)NC2(CCC(F)(F)CC2)C1=O)c1ccc(-c2nccnc2CO)cc1 [Example 6-6]
57 | < 100 | O=C(CN1C(=O)NC2(CCC(F)(F)CC2)C1=O)c1ccc(-n2ccc3ccncc32)nc1 [Example 19-8]
58 | < 100 | Cc1cc(C(=O)CN2C(=O)NC3(CCCCC3)C2=O)cnc1-c1ccccc1C#N [Example 11-1]
59 | < 100 | CCN(c1ccccc1)c1ccc(C(=O)CN2C(=O)NC3(CCCCC3)C2=O)cn1 [Example 19-3]
60 | < 100 | O=C(CN1C(=O)NC2(CCC(F)(F)CC2)C1=O)c1ccc(-c2ncccc2CO)cc1 [Example 6-36]
61 | < 500 | Cc1sc(C(=O)CN2C(=O)NC3(CCC(F)(F)CC3)C2=O)c(C)c1-c1ccccc1 [Example 15-8]
62 | < 500 | O=C(CN1C(=O)NC2(CCC(F)(F)CC2)C1=O)c1ccc(-c2ncnc3cnccc23)cc1 [Example 6-51]
63 | < 100 | Cc1cc(C(=O)CN2C(=O)NC3(CCC(F)(F)CC3)C2=O)n(C)c1-c1cccnc1 [Example 16-11]
64 | < 100 | Cc1nc(C(=O)CN2C(=O)NC3(CCC(F)(F)CC3)C2=O)n(C)c1-c1ccccc1CO [Example 17-10]
65 | < 10 | Cc1sc(C(=O)CN2C(=O)NC3(CCC(F)(F)CC3)C2=O)c(C)c1-c1cncc(F)c1 [Example 15-6]
66 | < 500 | Cc1sc(C(=O)CN2C(=O)NC3(CCC(F)(F)CC3)C2=O)c(C)c1-c1cccc(CO)c1 [Example 15-12]
67 | < 100 | O=C(CN1C(=O)NC2(CCC(F)(F)CC2)C1=O)c1ccc(-c2ncc3ccccn23)cc1 [Example 6-63]
68 | < 100 | O=C(CN1C(=O)NC2(CCC(F)(F)CC2)C1=O)c1ccc(-c2cccnc2)c(Cl)c1 [Example 13-24]
69 | < 100 | CCc1ccccc1-c1ccc(C(=O)CN2C(=O)NC3(CCC(F)(F)CC3)C2=O)cn1 [Example 9-20]

From patent publication US10093678B2, “Azaspiro derivatives as TRPM8 antagonists” (RaQualia Pharma Inc., priority 2014, dated 2018)
